In US20250325566A1, “C[…]-9-TETRAHYDROCANNABINOL AND TERPENES” (Vertanical GmbH, priority 2022, published 2025):

Test system: different cancer cell lines (MCF-7, HCT-116, CaCO2)
Experiment: MTT cytotoxicity assay, single substances vs combination, different cancer cell lines
Format: cell-based
Conditions: THC + alpha-bisabolol + guaiol vs single substance, 48 h
Experimental: The following cell lines were used for the experiment: CaCO2 (Pharmacelsus), HCT-116 (ATCC, Cat #CCL-247), and MCF-7 (ECACC, Cat #86012803). All cell lines were maintained at 37° C., 5% CO2 and 95% humidity. The medium was replaced three times per week and the monolayer was sub-cultured in a ratio of 1:5 when the culture reaches a confluence of 80%. The specific cultivation medium for each cell line was as follows: CaCO2 cell line was cultured in DMEM (PAN-Biotech, Cat #P04-03500) supplemented with 10% FBS Good (PAN-Biotech, Cat #P40-37500) and 1% NEAA (PAN-Biotech, Cat #P08-32100), HCT-116 cell line was cultured in McCoy's A5 medium (PAN-Biotech, Cat #P04-05500) supplemented with 10% FBS Good, and MCF-7 cell line was cultured in RPMI 1640 (PAN-Biotech, Cat #P04-16500) supplemented with 10% FBS and 2 mM GlutaMAX (Gibco, Cat #35050). All cell culture media were routinely supplemented with 1% Penicillin/Streptomycin (PAN-Biotech, Cat #P06-07100).
For the cytotoxicity assay, cells were seeded into 96-well flat bottom microtiter plates at a density of 10,000 cells/well and allowed to attach to the plate for 24 hours before the start of the experiment. […]
Quantification of viable cells was performed by using commercial MTT assay kit (Cell Proliferation Kit I (MTT), Sigma, Cat #11465007001). […] The formazan crystals formed are solubilized and the resulting coloured solution is quantified.
Cells were prepared as described in Example 1.1. […] Conversion of MTT to formazan was recorded by measuring the absorbance at 570 nm with reference wavelength 650 nm by using a spectrophotometer (Spectramax Plus, Molecular Devices). […]

Structure (SMILES) | IC50 values in combinatory treatment compared to single treatment
CCCCCc1cc(O)c2c(c1)OC(C)(C)[C@@H]1CCC(C)=C[C@@H]21 [THC, delta-9-tetrahydrocannabinol] | remain unchanged
CC(C)=CCC[C@](C)(O)[C@@H]1CC=C(C)CC1 [alpha-bisabolol] | remarkably reduced
C[C@H]1CC[C@@H](C(C)(C)O)CC2=C1CC[C@@H]2C [guaiol] | remarkably reduced
